According to patent US20220370416A1, “COMPOUNDS AND METHODS FOR TARGETED DEGRADATION OF KRAS” (Arvinas Operations, Inc., priority 2020, published 2022):

What was measured:
HiBit-KRAS^G12C [1] = target: T1, HiBit-KRAS^G12C (Homo sapiens, UniProt P01116, G12C); assay: HiBit degradation assay in SW1573 HiBit-KRas^G12C cells; format: cell-based; design: expressed in transfected cells; host or cells: SW1573 (clone E6), modified pcDNA3.1 vector, TK promoter; conditions: 0.5% DMSO, 24 hours; for Dmax: SW1573, SW1573 HiBit-KRas^G12C, read-out: KRas^G12C-HiBiT (SW1573; 0.5% DMSO) Dmax**; for DC50: read-out: KRas^G12C-HiBiT (SW1573; 0.5% DMSO) IC50***, SW1573 HiBit-KRas^G12C
Procedure, shortened: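 HiBit-KRAS G12C degradation was measured after a 24 h compound exposure (titrated 10 μM–20 nM) in engineered SW1573 cells. Lytic HiBit luminescence, expressed relative to DMSO controls, yielded DC50 and Dmax from 4-parameter fits. Concentrations causing ≥50% loss in alamar blue viability were omitted as cytotoxic.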

HiBit-KRAS^G12C [2] = target: T1, HiBit-KRAS^G12C; assay: HiBit degradation assay in MiaPaCa-2 HiBit-KRas^G12C cells; format: cell-based; conditions: 0.5% DMSO, 24 hours; for Dmax: MIA PaCa-2, MiaPaCa-2 HiBit-KRas^G12C cells, maximum degradation, read-out: KRas^G12C-HiBiT (MiaPaCa; 0.5% DMSO) DMax; for DC50: read-out: KRas^G12C-HiBiT (MiaPaCa; 0.5% DMSO) IC50, MiaPaCa-2 HiBit-KRas^G12C cells
Procedure, shortened: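 DC50 and Dmax come from 4-parameter fits of DMSO-normalized HiBit luminescence after 24 hours' exposure at 37° C to 10 μM–20 nM compound in 0.1% or 0.5% DMSO. Cells: MiaPaCa-2 carrying one endogenously HiBit-tagged KRAS^G12C allele; concentrations causing ≥50% […] viability loss (alamar blue) excluded.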

T1 sequence (P01116 1-186 isoform P01116-2 G12C limits assumed): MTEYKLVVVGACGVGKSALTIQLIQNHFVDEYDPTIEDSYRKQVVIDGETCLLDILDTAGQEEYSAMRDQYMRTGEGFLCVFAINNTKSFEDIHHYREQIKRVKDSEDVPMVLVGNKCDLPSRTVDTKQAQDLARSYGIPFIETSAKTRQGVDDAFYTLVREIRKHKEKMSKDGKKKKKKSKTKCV

| SMILES | Dmax (HiBit-KRAS^G12C [1]) [%] | DC50 (HiBit-KRAS^G12C [1]) [nM] | Dmax (HiBit-KRAS^G12C [2]) [%] | DC50 (HiBit-KRAS^G12C [2]) [nM] |
| --- | --- | --- | --- | --- |
| C=CC(=O)N1CCN(c2nc(OCCN3CCC(COCC(=O)N[C@H](C(=O)N4C[C@H](O)C[C@H]4C(=O)N[C@@H](C)c4ccc(-c5scnc5C)cc4)C(C)(C)C)CC3)nc3c(F)c(-c4c(C)ccc5[nH]ncc45)c(Cl)cc23)C[C@@H]1CC#N [Compound 128, (2S,4R)-1-[(2S)-2-[2-({1-[2-({6-chloro-4-[(3S)-3-(cyanomethyl)-4-(prop-2-enoyl)piperazin-1-yl]-8-fluoro-7-(5-methyl-1H-indazol-4-yl)quinazolin-2-yl}oxy)ethyl]piperidin-4-yl}methoxy)acetamido]-3,3-dimethylbutanoyl]-4-hydroxy-N-[(1S)-1-[4-(4-methyl-1,3-thiazol-5-yl)phenyl]ethyl]pyrrolidine-2-carboxamide] | > 70 | 100 to 1000 | 35 to 70 | 100 to 1000 |
| C=CC(=O)N1CCN(c2nc(O[C@@H]3CCC[C@H]3N3CCC(COCC(=O)N[C@H](C(=O)N4C[C@H](O)C[C@H]4C(=O)N[C@@H](C)c4ccc(-c5scnc5C)cc4)C(C)(C)C)CC3)nc3c(F)c(-c4cc(O)cc5ccccc45)c(Cl)cc23)C[C@@H]1CC#N [Compound 130, (2S,4R)-1-[(2S)-2-[2-({1-[(1R,2R)-2-({6-chloro-4-[(3S)-3-(cyanomethyl)-4-(prop-2-enoyl)piperazin-1-yl]-8-fluoro-7-(3-hydroxynaphthalen-1-yl)quinazolin-2-yl}oxy)cyclopentyl]piperidin-4-yl}methoxy)acetamido]-3,3-dimethylbutanoyl]-4-hydroxy-N-[(1S)-1-[4-(4-methyl-1,3-thiazol-5-yl)phenyl]ethyl]pyrrolidine-2-carboxamide] | > 70 | 100 to 1000 | 35 to 70 | 100 to 1000 |
| C=CC(=O)N1CCN(c2nc(OCCN3CCC(C)(COc4cc([C@H](C(=O)N5C[C@H](O)C[C@H]5C(=O)N[C@@H](C)c5ccc(-c6scnc6C)cc5)C(C)C)on4)CC3)nc3c(F)c(-c4cc(O)cc5ccccc45)c(Cl)cc23)C[C@@H]1CC#N [Compound 131, (2S,4R)-1-[(2R)-2-[3-({1-[2-({6-chloro-4-[(3S)-3-(cyanomethyl)-4-(prop-2-enoyl)piperazin-1-yl]-8-fluoro-7-(3-hydroxynaphthalen-1-yl)quinazolin-2-yl}oxy)ethyl]-4-methylpiperidin-4-yl}methoxy)-1,2-oxazol-5-yl]-3-methylbutanoyl]-4-hydroxy-N-[(1S)-1-[4-(4-methyl-1,3-thiazol-5-yl)phenyl]ethyl]pyrrolidine-2-carboxamide] | > 70 | < 100 | > 70 | 100 to 1000 |
| C=CC(=O)N1CCN(c2nc(OCCN3CCC(C)(COc4cc([C@@H](C(=O)N5C[C@H](O)C[C@H]5C(=O)N[C@@H](C)c5ccc(-c6scnc6C)cc5)C(C)C)on4)CC3)nc3c(F)c(-c4cc(O)cc5ccccc45)c(Cl)cc23)C[C@@H]1CC#N [Compound 132, (2S,4R)-1-[(2S)-2-[3-({1-[2-({6-chloro-4-[(3S)-3-(cyanomethyl)-4-(prop-2-enoyl)piperazin-1-yl]-8-fluoro-7-(3-hydroxynaphthalen-1-yl)quinazolin-2-yl}oxy)ethyl]-4-methylpiperidin-4-yl}methoxy)-1,2-oxazol-5-yl]-3-methylbutanoyl]-4-hydroxy-N-[(1S)-1-[4-(4-methyl-1,3-thiazol-5-yl)phenyl]ethyl]pyrrolidine-2-carboxamide] | – | > 1000 | – | > 1000 |
